Experimental data from PubChem BioAssay AID328 (DTP/NCI, 2004).
Inconclusive results and toxic doses are left out. How the source made its calls: active means survival T/C of 150% or more; inactive means T/C below 125% in these data.

Test system: BDF1 mice, P388 leukemia ip, median survival T/C
Test: NCI In Vivo Anticancer Drug Screen. Data for tumor model P388 Leukemia (intraperitoneal) in B6D2F1 (BDF1) mice
Conditions: endpoint: median survival time, higher = longer survival
Outline: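 Transplantable tumour in mice; compound vs vehicle dosing; survival scored; ratio of treated to control reported.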

[1] = dose: 12.5 mg/kg/injection, schedule: Q01DX009 (ip), vehicle: saline with Tween-80
[2] = dose: 100.0 mg/kg/injection, schedule: Q04DX003 (ip), vehicle: Klucel (hydroxypropylcellulose) (HPC)
[3] = dose: 200.0 mg/kg/injection, schedule: Q04DX003 (ip), vehicle: Klucel (hydroxypropylcellulose) (HPC)
[4] = dose: 400.0 mg/kg/injection, schedule: Q04DX003 (ip), vehicle: Klucel (hydroxypropylcellulose) (HPC)
[5] = dose: 100.0 mg/kg/injection, schedule: Q04DX003 (ip), vehicle: saline with Tween-80
[6] = dose: 200.0 mg/kg/injection, schedule: Q04DX003 (ip), vehicle: saline with Tween-80
[7] = dose: 400.0 mg/kg/injection, schedule: Q04DX003 (ip), vehicle: saline with Tween-80

Measured: T/C

Cc1cc(-c2ccc(Cl)cc2)[n+](C)n1C
inactive: [1] 100 % of control | dose: 25.0 mg/kg/injection, schedule: Q01DX009 (ip), vehicle: saline with Tween-80 111 % of control

Cc1ccc(N)c(CSc2ccccc2)c1
inactive: dose: 50.0 mg/kg/injection, schedule: Q04DX002 (ip), vehicle: saline with Tween-80 95 % of control | dose: 100.0 mg/kg/injection, schedule: Q04DX002 (ip), vehicle: saline with Tween-80 97 % of control | dose: 200.0 mg/kg/injection, schedule: Q04DX002 (ip), vehicle: saline with Tween-80 98 % of control

COc1ccc(NC(=O)Oc2c(C(C)C)cccc2C(C)C)cc1
inactive: [2] 100 % of control | [3] 91 % of control | [4] 100 % of control

N#CC(/C=C/c1ccccc1)Nc1ccccc1 (configuration not stated)
inactive: [5] 104 % of control | [6] 100 % of control | [7] 100 % of control

BrC1C(Br)C(Br)C2OC2C1Br (configuration not stated)
inactive: [2] 100 % of control | [3] 105 % of control | [4] 100 % of control

CC1([CH2][Hg][I])COCC([CH2][Hg][I])O1 (configuration not stated)
inactive: dose: 2.87 mg/kg/injection, schedule: Q04DX003 (ip), vehicle: saline 100 % of control | dose: 5.0 mg/kg/injection, schedule: Q01DX009 (ip), vehicle: saline with Tween-80 118 % of control | dose: 5.0 mg/kg/injection, schedule: Q04DX003 (ip), vehicle: saline with Tween-80 100 % of control | dose: 5.75 mg/kg/injection, schedule: Q01DX009 (ip), vehicle: saline 95 % of control | dose: 5.75 mg/kg/injection, schedule: Q04DX003 (ip), vehicle: saline 109 % of control | dose: 10.0 mg/kg/injection, schedule: Q01DX009 (ip), vehicle: saline with Tween-80 113 % of control | dose: 10.0 mg/kg/injection, schedule: Q04DX003 (ip), vehicle: saline with Tween-80 90 % of control | dose: 11.5 mg/kg/injection, schedule: Q01DX009 (ip), vehicle: saline 100 % of control | dose: 11.5 mg/kg/injection, schedule: Q04DX003 (ip), vehicle: saline 100 % of control | dose: 17.0 mg/kg/injection, schedule: Q04DX003 (ip), vehicle: saline 100 % of control | dose: 20.0 mg/kg/injection, schedule: Q01DX009 (ip), vehicle: saline with Tween-80 95 % of control | dose: 20.0 mg/kg/injection, schedule: Q04DX003 (ip), vehicle: saline with Tween-80 118 % of control | dose: 26.0 mg/kg/injection, schedule: Q04DX003 (ip), vehicle: saline 118 % of control

CC(=O)OCCCl
inactive: dose: 50.0 mg/kg/injection, schedule: Q04DX003 (ip), vehicle: suspension in saline 99 % of control | dose: 100.0 mg/kg/injection, schedule: Q04DX003 (ip), vehicle: suspension in saline 103 % of control | dose: 200.0 mg/kg/injection, schedule: Q04DX003 (ip), vehicle: suspension in saline 103 % of control | dose: 400.0 mg/kg/injection, schedule: Q04DX003 (ip), vehicle: suspension in saline 114 % of control

COc1ccc(C2(C(=O)O)CC2)cc1
inactive: dose: 100.0 mg/kg/injection, schedule: Q01DX009 (ip), vehicle: saline with Tween-80 111 % of control | [5] 109 % of control | dose: 200.0 mg/kg/injection, schedule: Q01DX009 (ip), vehicle: saline with Tween-80 100 % of control | [6] 109 % of control | dose: 400.0 mg/kg/injection, schedule: Q01DX009 (ip), vehicle: saline with Tween-80 96 % of control | [7] 113 % of control

COc1cccc(CC(=O)NCCc2ccc(OC)c(OC)c2)c1
inactive: [5] 100 % of control | [6] 90 % of control | [7] 100 % of control

O=[N+]([O-])c1cccc2c[n+](Cc3ccc(Br)cc3)ccc12
inactive: [1] 123 % of control

OCC(CO)(CO)CBr
inactive: dose: 100.0 mg/kg/injection, schedule: Q01DX009 (ip), vehicle: saline 110 % of control | dose: 100.0 mg/kg/injection, schedule: Q04DX003 (ip), vehicle: saline 90 % of control | dose: 200.0 mg/kg/injection, schedule: Q01DX009 (ip), vehicle: saline 110 % of control | dose: 200.0 mg/kg/injection, schedule: Q04DX003 (ip), vehicle: saline 90 % of control | dose: 400.0 mg/kg/injection, schedule: Q01DX009 (ip), vehicle: saline 88 % of control | dose: 400.0 mg/kg/injection, schedule: Q04DX003 (ip), vehicle: saline 114 % of control
